Experimental findings from ChEMBL document CHEMBL1201862, “PubChem BioAssay data set” (2004) are described below.

Assay [1] has as its target FAD-linked sulfhydryl oxidase ALR (Homo sapiens, UniProt P55789). As to the kind of experiment: ALR-catalysed DTT oxidation blockers – biochemical, H2O2 detection, luminescence, cherry-pick, dose response (AID 493248).
For assay [2], the target named is T1, Zinc finger protein mex-5 (Caenorhabditis elegans, UniProt Q9XUB2).
T1 sequence (Q9XUB2 whole entry): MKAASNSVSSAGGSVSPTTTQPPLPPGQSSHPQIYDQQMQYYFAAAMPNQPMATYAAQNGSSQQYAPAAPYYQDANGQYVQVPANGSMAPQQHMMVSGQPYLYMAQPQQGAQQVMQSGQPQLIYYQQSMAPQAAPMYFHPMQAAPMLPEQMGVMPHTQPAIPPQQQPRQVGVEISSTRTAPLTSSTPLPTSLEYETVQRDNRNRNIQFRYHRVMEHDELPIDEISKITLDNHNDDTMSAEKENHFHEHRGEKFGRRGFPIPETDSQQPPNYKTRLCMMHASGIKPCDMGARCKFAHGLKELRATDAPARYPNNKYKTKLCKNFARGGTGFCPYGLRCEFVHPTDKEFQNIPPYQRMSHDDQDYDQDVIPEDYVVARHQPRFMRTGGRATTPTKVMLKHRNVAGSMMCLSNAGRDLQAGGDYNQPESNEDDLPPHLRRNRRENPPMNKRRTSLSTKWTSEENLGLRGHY
The assay can be described thus: potency of MEX-5 RNA-binding blockers – biochemical, C. elegans, fluorescence polarization, dose response (AID 1960).

A further assay has as its target T2, Streptokinase A (Streptococcus pyogenes serotype M1, UniProt P10520).
T2 sequence (P10520 whole entry): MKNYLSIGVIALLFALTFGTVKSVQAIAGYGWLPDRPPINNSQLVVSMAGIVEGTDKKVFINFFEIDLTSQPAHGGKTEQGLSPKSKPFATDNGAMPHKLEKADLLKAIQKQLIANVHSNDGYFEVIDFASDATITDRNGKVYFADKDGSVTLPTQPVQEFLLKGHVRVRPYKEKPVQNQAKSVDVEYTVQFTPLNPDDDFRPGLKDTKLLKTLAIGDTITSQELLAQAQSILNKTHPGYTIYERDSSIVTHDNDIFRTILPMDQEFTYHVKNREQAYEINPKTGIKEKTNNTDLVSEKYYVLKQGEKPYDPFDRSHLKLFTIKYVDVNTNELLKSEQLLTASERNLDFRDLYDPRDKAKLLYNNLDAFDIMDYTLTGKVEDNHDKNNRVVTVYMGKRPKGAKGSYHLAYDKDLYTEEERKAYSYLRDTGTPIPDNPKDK
The assay can be described thus: viability-normalized secreted streptokinase activity reduction – plasminogen activation absorbance, OD405, dose response (AID 1914).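 Further: secreted streptokinase activity via plasminogen activation per viability signal from cell pellet.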 Format: functional, Streptococcus pyogenes M1 GAS.

Another assay has as its system Streptococcus. The assay can be described thus: GAS UMAA2166 growth inhibition – luminescence, BacTiterGlo, counter-screen for streptokinase expression inhibitor project, dose response (AID 1915).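 Further: potency for reduction of bacterial viability or growth.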 Format: functional, organism-based. Background: Counterscreens check selectivity or assay interference.
The subject of assay [3] is Streptococcus sp. 'group A'. The assay can be described thus: Streptococcus pyogenes SK(-)GAS viability under kanamycin – luminescence, BacTiterGlo, confirmation, counter-screen for streptokinase expression inhibitor project, dose response (AID 1900). The assay is classed as functional, organism-based.
Assay [4] addresses T3, RNA-binding protein pos-1 (Caenorhabditis elegans, UniProt G5EF15).
T3 sequence (G5EF15 whole entry): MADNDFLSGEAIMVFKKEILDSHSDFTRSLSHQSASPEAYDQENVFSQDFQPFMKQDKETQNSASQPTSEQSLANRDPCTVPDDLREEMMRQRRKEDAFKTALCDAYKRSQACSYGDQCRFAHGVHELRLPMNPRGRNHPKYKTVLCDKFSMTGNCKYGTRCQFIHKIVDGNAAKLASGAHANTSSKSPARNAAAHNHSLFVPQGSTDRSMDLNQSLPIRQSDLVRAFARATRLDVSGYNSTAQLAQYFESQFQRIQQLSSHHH
As to the kind of experiment: disruptors of C. elegans POS-1 RNA interaction – biochemical, fluorescence polarization, dose response (AID 1964).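 Further: purified POS-1 fused to maltose binding protein made in E. coli; potency of compounds blocking POS-1 binding to fluorescent RNA.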

For the next assay, the target named is Paired box protein Pax-8 (Homo sapiens, UniProt Q06710). The assay can be described thus: PAX8 transcriptional activity inhibition in RMG-I – RMG-I cells, luciferase, cherry-pick, dose response (AID 687027).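 Further: luciferase reporter driven by Pax8 target thyroperoxidase promoter measured by SteadyGlo luminescence.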 The assay is classed as functional, cell-based.
In assay [5] the target is Luciferin 4-monooxygenase (Photinus pyralis, UniProt P08659). As to the kind of experiment: inhibition of purified Photinus pyralis luciferase – biochemical, luminescence, dose response (AID 1891).
Assay [6] in a line: viability of uninfected HEp-2 cells – cell-based, HTS, cytotoxicity control for RSV inhibitor project, dose response (AID 2410). The assay is classed as functional. The conditions noted are these: human respiratory syncytial virus.
The nature of assay [7]: Luminescence Cell-Based Dose Confirmation HTS to Identify Inhibitors of Platelet Dense Granule Release. [Related pubchem assays: 1663 (Primary HTS), 1678 (Summary of Project)]. Format: functional.
Assay [8] in a line: NIH-3T3 fibroblast cytotoxicity, dose response, cytotoxicity control, cell-based, fluorescence, Alamar Blue, secondary assay (AID 2327).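 Further: NIH-3T3 mouse fibroblasts cultured with fluconazole at 8 µg/mL.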 The assay is classed as functional.
A short description of assay [9]: cells. Format: functional, cell-based.
The nature of assay [10]: cells. Format: functional, cell-based. The source holds these as a separate data set.
The target of the next assay is Cytochrome P450 2D6 (Homo sapiens, UniProt P10635).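 Further: CYP2D6 member of a cytochrome P450 panel assay.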
Another assay deals with Cytochrome P450 2C9 (Homo sapiens, UniProt P11712).
Another assay has as its target Cytochrome P450 2C19 (Homo sapiens, UniProt P33261). The assay can be described thus: Cytochrome panel assay with activity outcomes. Panel member name: p450-cyp2c19 Compounds with AC50 equal or less than 10 uM are considered active. The conditions noted are these: read-out: AC50. The assay is classed as functional.
Assay [11] in a line: Luminescence Cell-Based Dose Retest to Confirm Inhibitors of Cancer Stem Cells. [Related pubchem assays (depositor defined):AID2717, AID2721]. The assay is classed as functional. The conditions noted are these: Homo sapiens.
Assay [12] has as its target T4, Corticotropin-releasing factor receptor 2/Corticotropin-releasing factor-binding protein (Homo sapiens, UniProt P24387+Q13324).
T4 sequence (Q13324 whole entry): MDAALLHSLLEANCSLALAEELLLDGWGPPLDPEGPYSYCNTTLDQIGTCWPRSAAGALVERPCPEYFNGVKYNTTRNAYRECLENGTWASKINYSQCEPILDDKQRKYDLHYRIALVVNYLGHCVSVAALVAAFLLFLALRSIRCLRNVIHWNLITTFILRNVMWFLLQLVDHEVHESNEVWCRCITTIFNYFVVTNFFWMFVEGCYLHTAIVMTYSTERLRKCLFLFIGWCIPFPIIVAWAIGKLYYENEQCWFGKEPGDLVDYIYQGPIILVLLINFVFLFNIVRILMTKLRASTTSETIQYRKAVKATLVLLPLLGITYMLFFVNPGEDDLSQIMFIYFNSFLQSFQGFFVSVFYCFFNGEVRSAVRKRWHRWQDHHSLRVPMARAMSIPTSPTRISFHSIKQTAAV
T4 sequence (P24387 whole entry): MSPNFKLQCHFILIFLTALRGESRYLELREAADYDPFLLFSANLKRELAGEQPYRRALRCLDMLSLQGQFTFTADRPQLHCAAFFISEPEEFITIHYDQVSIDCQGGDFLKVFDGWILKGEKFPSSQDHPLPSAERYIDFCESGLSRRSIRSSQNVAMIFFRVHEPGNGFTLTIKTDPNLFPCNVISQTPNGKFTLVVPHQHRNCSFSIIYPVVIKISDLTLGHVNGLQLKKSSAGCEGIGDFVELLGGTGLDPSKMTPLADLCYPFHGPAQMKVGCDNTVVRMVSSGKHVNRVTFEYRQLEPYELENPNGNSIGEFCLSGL
The assay can be described thus: Dose Response confirmation of uHTS hits for small molecule antagonists of the CRF-binding protein and CRF-R2 receptor complex. The assay is classed as functional. The conditions noted are these: read-out: IC50_Mean.

Assay [13] concerns the target T4, Corticotropin-releasing factor receptor 2/Corticotropin-releasing factor-binding protein. The assay can be described thus: activators of CRF receptor 2 with binding protein – uHTS hits, confirmation (AID 602473). The assay is classed as functional. The conditions noted are these: read-out: EC50_Mean.

Activity calls are given as the source filed them.

Chain of FAD-linked sulfhydryl oxidase ALR (P55789 whole entry): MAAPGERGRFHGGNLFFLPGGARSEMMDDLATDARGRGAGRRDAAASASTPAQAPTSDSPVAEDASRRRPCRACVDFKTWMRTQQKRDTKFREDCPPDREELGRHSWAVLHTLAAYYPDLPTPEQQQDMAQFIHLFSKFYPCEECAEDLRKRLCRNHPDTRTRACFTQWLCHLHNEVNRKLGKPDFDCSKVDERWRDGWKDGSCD
Chain of Paired box protein Pax-8 (Q06710 whole entry): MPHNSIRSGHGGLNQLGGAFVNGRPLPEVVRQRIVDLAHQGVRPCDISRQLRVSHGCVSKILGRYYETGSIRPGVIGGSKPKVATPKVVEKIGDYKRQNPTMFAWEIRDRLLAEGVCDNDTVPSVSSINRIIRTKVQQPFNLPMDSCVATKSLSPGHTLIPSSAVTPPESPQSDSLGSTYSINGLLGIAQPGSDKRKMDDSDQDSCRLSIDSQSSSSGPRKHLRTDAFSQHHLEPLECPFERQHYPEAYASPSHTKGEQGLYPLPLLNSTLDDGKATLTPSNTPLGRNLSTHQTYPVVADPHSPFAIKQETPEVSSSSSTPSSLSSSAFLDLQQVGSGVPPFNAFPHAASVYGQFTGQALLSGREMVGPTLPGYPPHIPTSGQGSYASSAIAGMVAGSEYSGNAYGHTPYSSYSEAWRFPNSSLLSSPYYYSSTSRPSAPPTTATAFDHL
Chain of Cytochrome P450 2D6 (P10635 whole entry): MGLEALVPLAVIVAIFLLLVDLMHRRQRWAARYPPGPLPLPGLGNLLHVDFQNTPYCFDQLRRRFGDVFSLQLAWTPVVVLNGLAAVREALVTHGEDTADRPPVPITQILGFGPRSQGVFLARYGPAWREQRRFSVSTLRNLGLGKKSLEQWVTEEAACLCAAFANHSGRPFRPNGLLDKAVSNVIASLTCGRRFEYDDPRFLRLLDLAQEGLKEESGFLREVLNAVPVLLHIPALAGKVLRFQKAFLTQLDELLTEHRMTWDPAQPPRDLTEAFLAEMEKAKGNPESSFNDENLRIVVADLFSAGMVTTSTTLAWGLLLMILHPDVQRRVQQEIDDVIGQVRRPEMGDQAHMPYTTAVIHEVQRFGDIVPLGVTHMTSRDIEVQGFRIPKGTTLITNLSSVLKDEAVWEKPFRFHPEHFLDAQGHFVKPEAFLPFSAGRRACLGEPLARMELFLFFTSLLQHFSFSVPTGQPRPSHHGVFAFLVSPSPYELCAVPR
Chain of Cytochrome P450 2C9 (P11712 whole entry): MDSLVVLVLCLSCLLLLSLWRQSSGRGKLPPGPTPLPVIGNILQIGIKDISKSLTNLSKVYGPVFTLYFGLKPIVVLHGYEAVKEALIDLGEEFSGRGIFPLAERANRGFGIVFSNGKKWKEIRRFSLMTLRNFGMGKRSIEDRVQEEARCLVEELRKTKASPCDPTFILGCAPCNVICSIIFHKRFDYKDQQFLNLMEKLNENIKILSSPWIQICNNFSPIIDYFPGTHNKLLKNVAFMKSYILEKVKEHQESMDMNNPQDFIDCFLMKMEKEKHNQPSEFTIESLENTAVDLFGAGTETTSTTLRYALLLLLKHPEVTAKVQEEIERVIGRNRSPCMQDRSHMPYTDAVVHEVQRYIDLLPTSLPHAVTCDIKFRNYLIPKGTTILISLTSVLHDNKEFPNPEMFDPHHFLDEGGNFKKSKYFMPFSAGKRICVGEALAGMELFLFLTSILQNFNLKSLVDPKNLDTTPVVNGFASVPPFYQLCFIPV
Chain of Cytochrome P450 2C19 (P33261 whole entry): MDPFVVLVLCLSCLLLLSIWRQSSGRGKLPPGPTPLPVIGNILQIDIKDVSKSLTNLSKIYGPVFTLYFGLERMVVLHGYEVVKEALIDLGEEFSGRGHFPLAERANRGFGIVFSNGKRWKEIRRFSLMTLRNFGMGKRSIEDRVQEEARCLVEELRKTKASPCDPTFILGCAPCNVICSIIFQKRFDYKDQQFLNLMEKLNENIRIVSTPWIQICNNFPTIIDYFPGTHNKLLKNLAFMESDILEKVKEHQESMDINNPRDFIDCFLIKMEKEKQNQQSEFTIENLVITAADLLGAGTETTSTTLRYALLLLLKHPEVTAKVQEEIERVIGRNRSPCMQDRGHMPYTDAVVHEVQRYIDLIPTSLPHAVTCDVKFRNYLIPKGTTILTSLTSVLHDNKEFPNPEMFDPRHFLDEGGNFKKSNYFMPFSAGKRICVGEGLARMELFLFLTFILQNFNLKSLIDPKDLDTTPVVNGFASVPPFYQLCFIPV
Chain of Luciferin 4-monooxygenase (P08659 whole entry): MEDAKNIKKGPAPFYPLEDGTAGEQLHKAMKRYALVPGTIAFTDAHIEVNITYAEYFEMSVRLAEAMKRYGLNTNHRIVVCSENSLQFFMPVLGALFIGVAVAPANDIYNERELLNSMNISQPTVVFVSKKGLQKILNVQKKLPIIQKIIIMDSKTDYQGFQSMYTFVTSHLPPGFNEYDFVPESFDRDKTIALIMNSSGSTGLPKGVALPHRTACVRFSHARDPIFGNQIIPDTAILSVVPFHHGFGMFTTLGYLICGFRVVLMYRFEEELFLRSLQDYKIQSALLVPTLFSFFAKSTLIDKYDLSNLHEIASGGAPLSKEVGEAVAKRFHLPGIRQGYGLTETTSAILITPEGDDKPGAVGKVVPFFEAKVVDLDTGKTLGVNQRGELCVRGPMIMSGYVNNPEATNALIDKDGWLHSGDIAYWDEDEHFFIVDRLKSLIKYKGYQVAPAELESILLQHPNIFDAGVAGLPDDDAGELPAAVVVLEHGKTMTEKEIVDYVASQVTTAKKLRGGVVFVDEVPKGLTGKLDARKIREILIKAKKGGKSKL

Usually AC50 stands for the concentration at which the activity in the assay is half-maximal. For `Cc1noc(C)c1C(=O)N1CCCC(Nc2ccc(C(C)C)cc2)C1` (stereo not given), the AC50 in [1] was 7.67 µM (active).

With `CC(C)(C)c1ccc(-c2nc3cc(N)ccc3o2)cc1`, the half-maximal activity concentration (AC50) in [1] was 0.751 µM (active).

Regarding `O=C(O)c1cccc(S(=O)(=O)Nc2ccc(N3CCCCC3)cc2)c1`, the AC50 in assay [1] is 1.75 µM (active).

For the compound `COc1ccc(-c2cc(C(=O)N/N=C(\C)c3ccco3)c3ccccc3n2)c(OC)c1`, the EC50 is reported as > 300 µM (not active) in [2]; > 150 µM (not active) on Streptokinase A; > 150 µM (not active) in the assay on Streptococcus; > 150 µM (not active) in assay [3]; > 300 µM (not active) in assay [4].

With `COc1ccc(C(=O)N/N=C/c2ccc(OC)c(CN3CCN(c4ccc(F)cc4)CC3)c2)cc1`, the AC50 on Paired box protein Pax-8 is 35.8 µM (active).

As usually defined, the CC50 is the concentration giving 50% cytotoxicity. Consider `N=C(NOC(=O)c1ccc(Cl)cc1)c1ccccn1`, for which the results for the EC50 in assay [5] and in [7] were 1.53 µM (active) and 7.38 µM (active), respectively. Further, the CC50 in assay [6] is 16.4 µM (active).

`CC(C)c1ccc(NC(=O)C2CCCN(S(=O)(=O)c3ccc4c(c3)C(C)(C)C(=O)N4C)C2)cc1` (stereo not given): in [6], the CC50 was 17.6 µM (active).

As to `CCn1c(=O)c(C(=O)NNC(=O)Cc2ccccc2)c(O)c2ccccc21`, the EC50 at Streptokinase A was > 150 µM (not active); in the assay on Streptococcus, > 150 µM (not active); in assay [3], 9.03 µM (active).

On to `CC(C)CC(=O)Nc1cccc(-c2csc(-c3ccccc3)n2)c1`, for which the CC50 in assay [6] is 17.9 µM (active).

Consider `Cc1ccc(C)c(OC(=O)c2cncc(Br)c2)c1`, for which, in [8], the EC50 is > 160 µM (inactive).

For `COCCNC(=O)Nc1ccc2nc(-c3cccs3)c(-c3cccs3)nc2c1`, the CC50 in assay [6] was 33.1 µM (active).

For `O=C(NCCS(=O)(=O)N1CCN(c2ccccc2F)CC1)C1CC(=O)N(c2ccc(F)cc2)C1` (stereo not given), the EC50 on Streptokinase A was > 150 µM (not active); in the assay with Streptococcus it was > 150 µM (not active); in [3], > 150 µM (not active); in “cells [9]” it was > 350 µM (not active); in “cells [10]”, > 350 µM (not active).

As for `COc1ccc(S(=O)(=O)Nc2ccc3c(c2)C(=O)N([C@H](C)CO)C[C@@H](C)[C@H](CN(C)C(=O)Nc2ccc(C(F)(F)F)cc2)OCCCC[C@H](C)O3)cc1`, the AC50 at Paired box protein Pax-8 was 7.32 µM (active).

On to `Cn1c(SCC(=O)NC2(C#N)CCCCC2)nnc1-c1cccnc1`, for which the EC50 (at Streptokinase A; in the assay on Streptococcus; in [3]) was > 150 µM (not active) in each case.

On to `NS(=O)(=O)c1ccc(NNC(=O)c2ccc(Br)o2)c([N+](=O)[O-])c1`, for which the AC50 in [1] was 8.06 µM (active).

With `CCCCOC(=O)c1ccc(NC(=S)N2CCN(c3ncc4c(=O)c(C(=O)O)cn(CC)c4n3)CC2)cc1`, the results for the EC50 (at Streptokinase A; with Streptococcus; in assay [3]) were > 150 µM (not active), 2.62 µM (active) and 0.801 µM (active), respectively.

Take `Cc1ccc(NCc2nnc3n2CCCCC3)c(C)c1`: in [1], the concentration at half-maximal activity (AC50) is 1.35 µM (active).

On to `Cc1cc(C)c2nc(SCCc3ccccc3)nc(C)c2c1`, for which the EC50 on Streptokinase A was 12.5 µM (active); with Streptococcus, > 150 µM (not active); in assay [3], 33.4 µM (active).

In the case of `Cc1ccc(/C=C/C(=O)c2nc3ccccc3[nH]2)cc1`, the CC50 in assay [6] is 46.1 µM (active). For the same compound, the half-maximal activity concentration (AC50) at Cytochrome P450 2D6 is 28.2 µM (inconclusive); on Cytochrome P450 2C9, 7.94 µM (inconclusive); at Cytochrome P450 2C19 it was 0.0158 µM (inconclusive).

Regarding `COc1ccc2c(c1)CCc1cnc(N)nc1-2`, the CC50 in [6] is 24.4 µM (active).

For `C=CCOc1cccc(/C=C2\C(=O)N(Cc3ccc(C)cc3)C(C)=C2C(=O)OC)c1`, the AC50 in [11] is 5.38 µM (active). Further, the half-maximal cytotoxic concentration (CC50) in assay [6] is 29.7 µM (active).

Regarding `ClCc1csc(-c2ccc(Cl)cc2)n1`, the AC50 in assay [1] is 4.37 µM (active).

On to `O=C(c1cccs1)N1N=C(c2ccccc2)CC1c1ccccc1` (stereo not given), for which the EC50 was > 150 µM (not active) on Streptokinase A, 16.2 µM (active) with Streptococcus and 6.85 µM (active) in assay [3].

On to `CCCS(=O)(=O)N1CCCC(C(=O)NCCCN(CC)c2cccc(C)c2)C1` (stereo not given), for which, in assay [12], the IC50 was > 47.1 µM (inactive). Moreover, the EC50 in [13] was > 53 µM (inactive). Moreover, the half-maximal activity concentration (AC50) in [1] was 1.48 µM (active).
